In PubChem BioAssay (NCI):
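Grown in 96-well plates, cells were treated for 48 hours with each compound at five concentrations. Insufficient inhibition: endpoint recorded as highest concentration tested. Here, GI50 denotes the concentration required for 50% inhibition of growth. TGI denotes the concentration required for complete inhibition of growth.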

Experiments:
Assay in all cases: NCI tumour cell line growth inhibition, 48 h
[1] = test system: SK-MEL-5 melanoma
[2] = test system: COLO 205 colon
[3] = test system: NCI-H522 lung
[4] = test system: SNB-19 CNS
[5] = test system: OVCAR-8 ovarian
[6] = test system: EKVX NSCLC
[7] = test system: OVCAR-5 ovarian
[8] = test system: IGROV1 ovarian
[9] = test system: UACC-257 melanoma
[10] = test system: BT-549 breast
[11] = test system: UO-31 renal
[12] = test system: ACHN renal
[13] = test system: HCC-2998 colon
[14] = test system: T-47D breast
[15] = test system: SK-MEL-28 melanoma
[16] = test system: NCI/ADR-RES ovarian
[17] = test system: A498 renal
[18] = test system: HCT-15 colon
[19] = test system: MDA-MB-435
[20] = test system: CCRF-CEM leukemia
[21] = test system: OVCAR-3 ovarian
[22] = test system: RXF 393 renal
[23] = test system: M14 melanoma
[24] = test system: HL-60(TB) leukemia
[25] = test system: TK-10 renal
[26] = test system: K-562 leukemia
[27] = test system: SF-268 CNS
[28] = test system: OVCAR-4 ovarian
[29] = test system: KM12 colon
[30] = test system: SF-295 CNS
[31] = test system: HT29 colon
[32] = test system: SK-MEL-2 melanoma
[33] = test system: LOX IMVI melanoma
[34] = test system: DU-145 prostate
[35] = test system: SW-620 colon
[36] = test system: SN12C renal
[37] = test system: NCI-H226 lung
[38] = test system: CAKI-1 renal
[39] = test system: PC-3 prostate
[40] = test system: MCF7 breast
[41] = test system: SF-539 CNS
[42] = test system: UACC-62 melanoma
[43] = test system: A549 NSCLC
[44] = test system: MDA-MB-231 breast
[45] = test system: HCT-116 colon
[46] = test system: 786-0 renal
[47] = test system: NCI-H460 lung
[48] = test system: HOP-62 NSCLC
[49] = test system: HOP-92 NSCLC
[50] = test system: SNB-75 CNS
[51] = test system: MALME-3M melanoma
[52] = test system: SR leukemia
[53] = test system: U251 CNS
[54] = test system: MOLT-4 leukemia
[55] = test system: SK-OV-3 ovarian
[56] = test system: RPMI-8226 leukemia
[57] = test system: HS 578T breast

COc1ccc2[nH]cc(-c3cc(N)n4nc(-c5c[nH]c6ccc(OC)cc56)cc4n3)c2c1
GI50 [1]: 1.7 µM | TGI [1]: 3.08 µM | GI50 [2]: 1.65 µM | TGI [2]: 3.13 µM | GI50 [3]: 1.72 µM | TGI [3]: 3.32 µM | GI50 [4]: 3.25 µM | TGI [4]: 14.2 µM | GI50 [5]: 1.84 µM | TGI [5]: 3.72 µM | GI50 [6]: 1.73 µM | TGI [6]: 3.58 µM | GI50 [7]: 2.44 µM | TGI [7]: 6.31 µM | GI50 [8]: 2.26 µM | TGI [8]: 5.73 µM | GI50 [9]: 1.73 µM | TGI [9]: 3.17 µM | GI50 [10]: 5.54 µM | TGI [10]: 21.2 µM | GI50 [11]: 1.65 µM | TGI [11]: 3.55 µM | GI50 [12]: 1.85 µM | TGI [12]: 3.45 µM | GI50 [13]: 1.97 µM | TGI [13]: 3.59 µM | GI50 [14]: 1.91 µM | TGI [14]: 4.13 µM | GI50 [15]: 1.82 µM | TGI [15]: 3.31 µM | GI50 [16]: 3.09 µM | TGI [16]: 14.3 µM | GI50 [17]: 1.92 µM | TGI [17]: 3.86 µM | GI50 [18]: 1.99 µM | TGI [18]: 4.98 µM | GI50 [19]: 1.74 µM | TGI [19]: 3.26 µM | GI50 [20]: 2.81 µM | TGI [20]: 8.78 µM | GI50 [21]: 1.95 µM | TGI [21]: 3.83 µM | GI50 [22]: 1.67 µM | TGI [22]: 3.23 µM | GI50 [23]: 1.81 µM | TGI [23]: 3.38 µM | GI50 [24]: 1.92 µM | TGI [24]: 4.73 µM | GI50 [25]: 2.27 µM | TGI [25]: 5.23 µM | GI50 [26]: 2.4 µM | TGI [26]: > 100 µM | GI50 [27]: 2.13 µM | TGI [27]: 4.77 µM | GI50 [28]: 2.28 µM | TGI [28]: 5.32 µM | GI50 [29]: 1.88 µM | TGI [29]: 3.59 µM | GI50 [30]: 1.87 µM | TGI [30]: 3.49 µM | GI50 [31]: 1.79 µM | TGI [31]: 3.34 µM | GI50 [32]: 1.79 µM | TGI [32]: 3.5 µM | GI50 [33]: 2.23 µM | TGI [33]: 3.85 µM | GI50 [34]: 1.93 µM | TGI [34]: 3.58 µM | GI50 [35]: 1.68 µM | TGI [35]: 3.26 µM | GI50 [36]: 1.98 µM | TGI [36]: 3.91 µM

Cc1ccc2c(n1)C(=O)C(Cl)=C(Nc1ccc(C(=O)OC(C)(C)C)cc1)C2=O
GI50 [1]: > 92.5 µM | TGI [1]: > 92.5 µM | GI50 [37]: > 92.5 µM | TGI [37]: > 92.5 µM | GI50 [38]: 14.4 µM | TGI [38]: 30.6 µM | GI50 [2]: 21.9 µM | TGI [2]: 63 µM | GI50 [3]: 16.3 µM | TGI [3]: 35.7 µM | GI50 [4]: > 92.5 µM | TGI [4]: > 92.5 µM | GI50 [39]: > 92.5 µM | TGI [39]: > 92.5 µM | GI50 [5]: > 92.5 µM | TGI [5]: > 92.5 µM | GI50 [6]: > 92.5 µM | TGI [6]: > 92.5 µM | GI50 [40]: 16 µM | TGI [40]: 35.3 µM | GI50 [7]: > 92.5 µM | TGI [7]: > 92.5 µM | GI50 [8]: 71.4 µM | TGI [8]: > 92.5 µM | GI50 [9]: 31.7 µM | TGI [9]: > 92.5 µM | GI50 [41]: > 92.5 µM | TGI [41]: > 92.5 µM | GI50 [42]: > 92.5 µM | TGI [42]: > 92.5 µM | GI50 [10]: > 92.5 µM | TGI [10]: > 92.5 µM | GI50 [11]: 18.9 µM | TGI [11]: 53.1 µM | GI50 [43]: > 92.5 µM | TGI [43]: > 92.5 µM | GI50 [12]: 15.8 µM | TGI [12]: 28.6 µM | GI50 [13]: > 92.5 µM | TGI [13]: > 92.5 µM | GI50 [14]: 16.6 µM | TGI [14]: 55.4 µM | GI50 [44]: 30.2 µM | TGI [44]: > 92.5 µM | GI50 [15]: 18.2 µM | TGI [15]: 38.5 µM | GI50 [16]: > 92.5 µM | TGI [16]: > 92.5 µM | GI50 [45]: 15.5 µM | TGI [45]: 32 µM | GI50 [17]: > 92.5 µM | TGI [17]: > 92.5 µM | GI50 [18]: 15.4 µM | TGI [18]: 33.9 µM | GI50 [19]: 90.3 µM | TGI [19]: > 92.5 µM | GI50 [20]: 5.9 µM | TGI [20]: > 92.5 µM | GI50 [46]: > 92.5 µM | TGI [46]: > 92.5 µM | GI50 [21]: 13.8 µM | TGI [21]: 30.4 µM | GI50 [47]: > 92.5 µM | TGI [47]: > 92.5 µM | GI50 [22]: 12.8 µM | TGI [22]: 25.5 µM | GI50 [23]: 29.2 µM | TGI [23]: > 92.5 µM | GI50 [24]: 7.65 µM | TGI [24]: 71.1 µM | GI50 [48]: > 92.5 µM | TGI [48]: > 92.5 µM | GI50 [49]: 16.4 µM | TGI [49]: 36.7 µM | GI50 [25]: > 92.5 µM | TGI [25]: > 92.5 µM | GI50 [50]: > 92.5 µM | TGI [50]: > 92.5 µM | GI50 [26]: 3.77 µM | TGI [26]: > 92.5 µM | GI50 [27]: > 92.5 µM | TGI [27]: > 92.5 µM | GI50 [28]: 12.7 µM | TGI [28]: 29.2 µM | GI50 [51]: 15.7 µM | TGI [51]: 30.5 µM | GI50 [29]: > 92.5 µM | TGI [29]: > 92.5 µM | GI50 [30]: > 92.5 µM | TGI [30]: > 92.5 µM | GI50 [52]: 3.44 µM | TGI [52]: 55.7 µM | GI50 [31]: > 92.5 µM | TGI [31]: > 92.5 µM | GI50 [53]: > 92.5 µM | TGI [53]: > 92.5 µM | GI50 [32]: > 92.5 µM | TGI [32]: > 92.5 µM | GI50 [54]: 4.65 µM | TGI [54]: 72.8 µM | GI50 [33]: 16.9 µM | TGI [33]: 33 µM | GI50 [55]: > 92.5 µM | TGI [55]: > 92.5 µM | GI50 [56]: 23.3 µM | TGI [56]: > 92.5 µM | GI50 [57]: > 92.5 µM | TGI [57]: > 92.5 µM | GI50 [34]: > 92.5 µM | TGI [34]: > 92.5 µM | GI50 [35]: 18.5 µM | TGI [35]: 44 µM | GI50 [36]: > 92.5 µM | TGI [36]: > 92.5 µM
